# According to patent publication US6727066B2, “Genes expressed in treated human C3A liver cell cultures” (Incyte Corporation, priority 2000, dated 2004):
# System: human C3A liver cell cultures
# Assay: Microarray differential expression of cDNAs in treated human C3A liver cell cultures
# Assay type: cell-based
# Conditions: change vs untreated C3A cells
# Description: Incyte clones represent template sequences derived from the LIFESEQ GOLD assembled human sequence database (Incyte Genomics). In cases where more than one clone was available for a particular template, the 5′-most clone in the template was used on the microarray. The GENEALBUM GEM series 1-6 microarrays (Incyte Genomics) contain 52,616 array elements which represent 17,472 annotated clusters and 35,144 unannotated clusters. The HUMAN GENOME GEM series 1-3 microarrays (Incyte Genomics) contain 28,626 array elements which represent 10,068 annotated clusters and 18,558 unannotated clusters. For the UNIGEM series microarrays (Incyte Genomics), Incyte clones were mapped to non-redundant Unigene clusters (Unigene database (build 46), NCBI; Shuler (1997) J Mol Med 75:694-698), and the 5′ clone with the strongest BLAST alignment (at least 90% identity and 100 bp overlap) was chosen, verified, and used in the construction of the microarray. The UNIGEM V microarray (Incyte Genomics) contains 7075 array elements which represent 4610 annotated genes and 2,184 unannotated clusters.
# To construct microarrays, cDNAs were amplified from bacterial cells using primers complementary to vector sequences flanking the cDNA insert. […] Amplified cDNAs were then purified using […]-400 columns (APB). Purified cDNAs were immobilized on polymer-coated glass slides. Glass microscope slides (Corning, Corning N.Y.) were cleaned by ultrasound in 0.1% SDS and acetone, with extensive distilled water washes between and after treatments. Glass slides were etched in 4% hydrofluoric acid (VWR Scientific Products, West Chester Pa.), washed thoroughly in distilled water, and coated with 0.05% aminopropyl silane (Sigma Aldrich) in 95% ethanol. Coated slides were cured in a 110° C. oven. cDNAs were applied to the coated glass substrate using a procedure described in U.S. Pat. No. 5,807,522. One microliter of the cDNA at an average concentration of 100 ng/ul was loaded into the open capillary printing element by a high-speed robotic apparatus which then deposited about 5 nl of cDNA per slide.
# Microarrays were UV-crosslinked using a […] UV-crosslinker (Stratagene), and then washed at room temperature once in 0.2% SDS and three times in distilled water. Non-specific binding sites were blocked by incubation of microarrays in 0.2% casein in phosphate buffered saline (Tropix, Bedford Mass.) for 30 minutes at 60° C. followed by washes in 0.2% SDS and distilled water as before.
# Early confluent C3A cells (ATTC, Manassas Va.) were treated with captopril (0.5, 2, 48, and 60 μg/ml) for 1, 3, and 6 hours. Early confluent C3A cells were treated with enalapril (0.5, 2, 48, and 60 μg/ml) for 1, 3, and 6 hours. Early confluent C3A cells were treated with LY294002 (0.5, 2, 15, and 25 μg/ml) for 1, 3, and 6 hours. Early confluent C3A cells were starved of insulin for 3 days prior to treatment, then treated with LY294002 (10 μM) for 2, 24, 36, and 72 hours in the presence of insulin. Early confluent C3A cells were treated with DES (1, 10, and 100 μM) for 1, 3, and 6 hours. Early confluent C3A cells were treated with dexamethasone (1 and 20 μM) for 0, 2, 6, and 24 hours. Early confluent C3A cells were treated with MCA (0.5 and 10 μM) for 2, 6, and 24 hours. In all cases mRNA from untreated early confluent cells were prepared in parallel as described below.
# Cells were harvested and lysed in 1 ml of TRIZOL reagent (5×10^6 cells/ml; Life Technologies). The lysates were vortexed thoroughly and incubated at room temperature for 2-3 minutes and extracted with 0.5 ml chloroform. The extract was mixed, incubated at room temperature for 5 minutes, and centrifuged at 15,000 rpm for 15 minutes at 4° C. The aqueous layer was collected and an equal volume of isopropanol was added.
smiles,measurement,value
"Cc1ccc2cc3c(ccc4ccccc43)c3c2c1CC3 [MCA, 3-methylcholanthrene]",expression level of cDNA clone 72713,3
same,expression level of cDNA clone 85606,2.96
same,expression level of cDNA clone 118501,4.54
same,expression level of cDNA clone 121785,3.3
same,expression level of cDNA clone 136073,3.1
same,expression level of cDNA clone 279898,5.48
same,expression level of cDNA clone 311346,4.59
same,expression level of cDNA clone 318486,4.11
same,expression level of cDNA clone 408886,4.93
same,expression level of cDNA clone 450856,2.89
same,expression level of cDNA clone 452321,4.3
same,expression level of cDNA clone 454839,3.4
same,expression level of cDNA clone 462069,2.41
same,expression level of cDNA clone 481402,3.22
same,expression level of cDNA clone 510056,5.65
same,expression level of cDNA clone 511448,3.05
same,expression level of cDNA clone 560115,−2.61
same,expression level of cDNA clone 604019,3.28
same,expression level of cDNA clone 630625,2.25
same,expression level of cDNA clone 669498,−2.97
same,expression level of cDNA clone 701484,2.51
same,expression level of cDNA clone 872017,2.85
same,expression level of cDNA clone 1308112,2.28
same,expression level of cDNA clone 1316801,3.38
same,expression level of cDNA clone 1379063,−3.63
same,expression level of cDNA clone 1381654,2.64
same,expression level of cDNA clone 1457424,2.93
same,expression level of cDNA clone 1522880,2.74
same,expression level of cDNA clone 1560906,3.13
same,expression level of cDNA clone 1616783,2.63
same,expression level of cDNA clone 1619292,−2.8
same,expression level of cDNA clone 1623214,−3.12
same,expression level of cDNA clone 1630990,3.34
same,expression level of cDNA clone 1696224,4.4
same,expression level of cDNA clone 1756875,2.99
same,expression level of cDNA clone 1786554,2.67
same,expression level of cDNA clone 1833362,−2.33
same,expression level of cDNA clone 1890576,−3.07
same,expression level of cDNA clone 1930235,2.93
same,expression level of cDNA clone 1975268,−2.51
same,expression level of cDNA clone 1998269,2.46
same,expression level of cDNA clone 2055867,−2.67
same,expression level of cDNA clone 2120743,2.97
same,expression level of cDNA clone 2123516,3.83
same,expression level of cDNA clone 2195427,2.32
same,expression level of cDNA clone 2232658,2.25
same,expression level of cDNA clone 2252107,2.44
same,expression level of cDNA clone 2293496,−2.88
same,expression level of cDNA clone 2343348,2.89
same,expression level of cDNA clone 2511277,3.07
same,expression level of cDNA clone 2513883,3.67
same,expression level of cDNA clone 2520894,3.21
same,expression level of cDNA clone 2579218,2.42
same,expression level of cDNA clone 2660756,2.25
same,expression level of cDNA clone 2675232,3.09
same,expression level of cDNA clone 2695371,2.68
same,expression level of cDNA clone 2708055,2.45
same,expression level of cDNA clone 2756333,2.66
same,expression level of cDNA clone 2757583,4.31
same,expression level of cDNA clone 2765271,2.25
same,expression level of cDNA clone 2822027,2.96
same,expression level of cDNA clone 2825358,2.44
same,expression level of cDNA clone 2831490,2.48
same,expression level of cDNA clone 2860918,−3.2
same,expression level of cDNA clone 2884613,2.2
same,expression level of cDNA clone 2891601,2.56
same,expression level of cDNA clone 2912637,−4.29
same,expression level of cDNA clone 2921991,−3.43
same,expression level of cDNA clone 2955163,3.24
same,expression level of cDNA clone 2956444,3.04
same,expression level of cDNA clone 3074113,3.03
same,expression level of cDNA clone 3108506,3.02
same,expression level of cDNA clone 3158828,2.67
same,expression level of cDNA clone 3222802,3.23
same,expression level of cDNA clone 3225977,2.59
same,expression level of cDNA clone 3381870,2.3
same,expression level of cDNA clone 3407653,2.7
same,expression level of cDNA clone 3472927,2.77
same,expression level of cDNA clone 3493381,2.62
same,expression level of cDNA clone 3606046,3.24
same,expression level of cDNA clone 3792988,3.23
same,expression level of cDNA clone 4019706,3.55
same,expression level of cDNA clone 4070979,2.44
same,expression level of cDNA clone 4091186,2.64
same,expression level of cDNA clone 4092112,3.55
same,expression level of cDNA clone 4203937,7.13
same,expression level of cDNA clone 4246966,3.03
same,expression level of cDNA clone 4254855,2.3
same,expression level of cDNA clone 4284384,2.73
same,expression level of cDNA clone 4287327,−2.54
same,expression level of cDNA clone 4403805,2.4
same,expression level of cDNA clone 4508879,2.68
same,expression level of cDNA clone 4549259,2.53
same,expression level of cDNA clone 4721130,3.57
same,expression level of cDNA clone 5093071,2.36
same,expression level of cDNA clone 5102731,2.33
same,expression level of cDNA clone 5266015,2.47
same,expression level of cDNA clone 5266376,2.54
same,expression level of cDNA clone 5512044,2.26
